Values of other authors, collected in US20170058282A1 (priority 2015, published 2017).

Test system: heme sensor system HssRS (histidine kinase HssS / response regulator HssR)
Details: natural HssRS; cited from earlier work

Compound: C=CC1=C(C)c2cc3[nH]c(cc4nc(cc5[nH]c(cc1n2)c(C)c5CCC(=O)O)C(CCC(=O)O)=C4C)c(C)c3C=C.[Fe+2] [heme]
- responsive concentrations of heme: sub-μM
